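These data come from cells grown in 96-well plates and exposed to compound for 48 hours at five concentrations. The concentration for 50% growth inhibition is given as GI50.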 Activity calls are given as the source filed them. Cut-off read from the data, not from the text of the source: active = GI50 up to about 1.1 µM and inactive = higher.
Tests used:
Assay in all cases: NCI tumour cell line growth inhibition, 48 h
SK-MEL-28 = tested on: SK-MEL-28
OVCAR-3 = tested on: OVCAR-3
HCT-15 = tested on: HCT-15
SF-268 = tested on: SF-268
Hs-578T = tested on: Hs-578T
DU-145 = tested on: DU-145
UACC-62 = tested on: UACC-62
RPMI-8226 = tested on: RPMI-8226
SW-620 = tested on: SW-620
NCI-H522 = tested on: NCI-H522
OVCAR-5 = tested on: OVCAR-5
COLO 205 = tested on: COLO 205
CAKI-1 = tested on: CAKI-1
MOLT-4 = tested on: MOLT-4
Malme-3M = tested on: Malme-3M
SK-MEL-5 = tested on: SK-MEL-5
SF-295 = tested on: SF-295
M14 = tested on: M14
K562 = tested on: K562
SF-539 = tested on: SF-539

Compound | GI50 (SK-MEL-28) | GI50 (OVCAR-3) | GI50 (HCT-15) [µM] | GI50 (SF-268) | GI50 (Hs-578T) | GI50 (DU-145) | GI50 (UACC-62) | GI50 (RPMI-8226) | GI50 (SW-620) | GI50 (NCI-H522) | GI50 (OVCAR-5) | GI50 (COLO 205) | GI50 (CAKI-1) | GI50 (MOLT-4) | GI50 (Malme-3M) | GI50 (SK-MEL-5) | GI50 (SF-295) | GI50 (M14) | GI50 (K562) | GI50 (SF-539)
C=C(C)[C@H]1C2=CC(C)=C(O2)[C@@H](O[C@@H]2c3oc(cc3C)[C@H](C(=C)C)[C@H]3C=C(CC[C@H]2C(=C)C)C(=O)O3)[C@H](C(=C)C)CCC2=C[C@H]1OC2=O | > 100 µM (inactive) | > 100 µM (inactive) | > 100 | > 100 µM (inactive) | > 100 µM (inactive) | > 100 µM (inactive) | > 100 µM (inactive) | > 100 µM (inactive) | > 100 µM (inactive) | > 100 µM (inactive) | > 100 µM (inactive) | > 100 µM (inactive) | > 100 µM (inactive) | > 100 µM (inactive) | > 100 µM (inactive) | > 100 µM (inactive) | > 100 µM (inactive) | > 100 µM (inactive) | > 100 µM (inactive) | 
O=C1N=C2SC(=S)N=C(S)N2NC12c1ccccc1-c1ccccc12 |  |  | > 10 | > 10 µM (inactive) | > 10 µM (inactive) | > 10 µM (inactive) | > 10 µM (inactive) | 7.57 µM (inactive) | > 10 µM (inactive) |  |  | > 10 µM (inactive) | > 10 µM (inactive) | > 10 µM (inactive) | > 10 µM (inactive) | 8.49 µM (inactive) |  | > 10 µM (inactive) | 8.17 µM (inactive) | > 10 µM (inactive)
O=C(Cc1ccccc1)NNc1nc(NNC(=O)c2ccncc2)nc(Nc2ccc(Cl)cc2)n1 | > 10 µM (inactive) |  | > 10 | > 10 µM (inactive) | > 10 µM (inactive) | > 10 µM (inactive) | 9.68 µM (inactive) | > 10 µM (inactive) | > 10 µM (inactive) |  |  | > 10 µM (inactive) | > 10 µM (inactive) | > 10 µM (inactive) | > 10 µM (inactive) | > 10 µM (inactive) |  | > 10 µM (inactive) | > 10 µM (inactive) | > 10 µM (inactive)
O=c1[nH]c(N/N=C\C(O)C(O)C(O)C(O)CO)nc2ccccc12 (configuration not stated) | > 100 µM (inactive) | > 100 µM (inactive) | > 100 | > 100 µM (inactive) | > 100 µM (inactive) | > 100 µM (inactive) | > 100 µM (inactive) | > 100 µM (inactive) | > 100 µM (inactive) |  | > 100 µM (inactive) | > 100 µM (inactive) | > 100 µM (inactive) | > 100 µM (inactive) |  | > 100 µM (inactive) | > 100 µM (inactive) | > 100 µM (inactive) | > 100 µM (inactive) | > 100 µM (inactive)
CCOC(=S)SC/C(=N\OC(C)(C)OC)c1ccccc1 | 47.3 µM (inactive) | 41.1 µM (inactive) | 32.5 | 56.9 µM (inactive) | 46.5 µM (inactive) | > 100 µM (inactive) | 31.3 µM (inactive) |  | 33.2 µM (inactive) | 24.1 µM (inactive) | 40.4 µM (inactive) | 42.8 µM (inactive) | > 100 µM (inactive) | 20 µM (inactive) | 45 µM (inactive) | 41 µM (inactive) | 32.3 µM (inactive) | 29.1 µM (inactive) | 20.6 µM (inactive) | > 100 µM (inactive)
CSC1(CC(=O)N2CCCCC2)C(=O)Nc2ccccc21 (configuration not stated) | > 100 µM (inactive) | > 100 µM (inactive) | > 100 | > 100 µM (inactive) | > 100 µM (inactive) | > 100 µM (inactive) | > 100 µM (inactive) | > 100 µM (inactive) | > 100 µM (inactive) |  | > 100 µM (inactive) | > 100 µM (inactive) |  | > 100 µM (inactive) | > 100 µM (inactive) | > 100 µM (inactive) | > 100 µM (inactive) | > 100 µM (inactive) | > 100 µM (inactive) | > 100 µM (inactive)
CCOP(=O)(OCC)C(C)(C)OC(=O)NC#N | > 100 µM (inactive) | > 100 µM (inactive) | > 100 | > 100 µM (inactive) | > 100 µM (inactive) | > 100 µM (inactive) | > 100 µM (inactive) | > 100 µM (inactive) | > 100 µM (inactive) |  | > 100 µM (inactive) | > 100 µM (inactive) | > 100 µM (inactive) | > 100 µM (inactive) | > 100 µM (inactive) | > 100 µM (inactive) | > 100 µM (inactive) | > 100 µM (inactive) | > 100 µM (inactive) | > 100 µM (inactive)
Oc1nc(S)nc2c1C(c1ccc(Cl)cc1)c1c(O)nc(S)nc1O2 | > 100 µM (inactive) | > 100 µM (inactive) | > 100 | 25.7 µM (inactive) | > 100 µM (inactive) | > 100 µM (inactive) | > 100 µM (inactive) | > 100 µM (inactive) | > 100 µM (inactive) | > 100 µM (inactive) | > 100 µM (inactive) | > 100 µM (inactive) | 25.8 µM (inactive) | > 100 µM (inactive) | > 100 µM (inactive) | > 100 µM (inactive) | > 100 µM (inactive) | > 100 µM (inactive) | > 100 µM (inactive) | 
Nc1cccc2cc(S(=O)(=O)Nc3ccc(C(=O)O)cc3)ccc12 | > 100 µM (inactive) | > 100 µM (inactive) | > 100 | > 100 µM (inactive) | > 100 µM (inactive) | > 100 µM (inactive) | > 100 µM (inactive) | > 100 µM (inactive) | > 100 µM (inactive) | > 100 µM (inactive) | > 100 µM (inactive) | > 100 µM (inactive) | > 100 µM (inactive) |  | > 100 µM (inactive) | > 100 µM (inactive) | > 100 µM (inactive) | > 100 µM (inactive) | > 100 µM (inactive) | 
CCOC(=O)N1CCC2(CC1)C[C@](C)(C(C)=O)C(C)O2 (some centres not stated) | > 100 µM (inactive) | > 100 µM (inactive) | > 100 | > 100 µM (inactive) | > 100 µM (inactive) |  | > 100 µM (inactive) | > 100 µM (inactive) | > 100 µM (inactive) | > 100 µM (inactive) | > 100 µM (inactive) | > 100 µM (inactive) | > 100 µM (inactive) | > 100 µM (inactive) | > 100 µM (inactive) | > 100 µM (inactive) | > 100 µM (inactive) | > 100 µM (inactive) | > 100 µM (inactive) | > 100 µM (inactive)
CCOC(=O)CC(=O)C(=O)NN=C1NCCCN1 | > 100 µM (inactive) | > 100 µM (inactive) | > 100 | > 100 µM (inactive) | > 100 µM (inactive) | > 100 µM (inactive) | > 100 µM (inactive) | > 100 µM (inactive) | > 100 µM (inactive) |  | > 100 µM (inactive) | > 100 µM (inactive) |  | > 100 µM (inactive) | > 100 µM (inactive) | > 100 µM (inactive) | > 100 µM (inactive) | > 100 µM (inactive) | > 100 µM (inactive) | > 100 µM (inactive)
CC(=O)OC1CCC2(C)C(=CC(C3C=C4CC(OC(C)=O)CCC4(C)C4=C3C3CC5OC6(CCC(C)CO6)C(C)C5C3(C)CC4)C3=C2CCC2(C)C3CC3OC4(CCC(C)CO4)C(C)C32)C1 (configuration not stated) | 17.7 µM (inactive) | 15.1 µM (inactive) | 14.3 | 11.4 µM (inactive) | 2.61 µM (inactive) | 14.2 µM (inactive) | 13.4 µM (inactive) | 4.98 µM (inactive) |  | 6.17 µM (inactive) | 17.7 µM (inactive) | 17.6 µM (inactive) | 18.2 µM (inactive) | 2.07 µM (inactive) | 13.6 µM (inactive) | 13 µM (inactive) | 13.2 µM (inactive) | 14 µM (inactive) | 4.43 µM (inactive) | 
CC(C)(O)/C=C\P(=O)(O)O | > 100 µM (inactive) | > 100 µM (inactive) | > 100 | > 100 µM (inactive) | > 100 µM (inactive) | > 100 µM (inactive) | > 100 µM (inactive) |  | > 100 µM (inactive) | > 100 µM (inactive) | > 100 µM (inactive) | > 100 µM (inactive) | > 100 µM (inactive) |  | > 100 µM (inactive) | > 100 µM (inactive) | > 100 µM (inactive) | > 100 µM (inactive) | > 100 µM (inactive) | > 100 µM (inactive)
CC1(C)C2CC1C(/C=N\OCC(=O)O)=CC2=O (configuration not stated) | > 100 µM (inactive) | > 100 µM (inactive) | > 100 | > 100 µM (inactive) | > 100 µM (inactive) | > 100 µM (inactive) | > 100 µM (inactive) | > 100 µM (inactive) | > 100 µM (inactive) |  | > 100 µM (inactive) | > 100 µM (inactive) | > 100 µM (inactive) | > 100 µM (inactive) | > 100 µM (inactive) | > 100 µM (inactive) | > 100 µM (inactive) | > 100 µM (inactive) | > 100 µM (inactive) | > 100 µM (inactive)
COc1ccc(C(=O)/C=C/c2ccc(OCC(=N)N)cc2)cc1 | 15.3 µM (inactive) | 14.4 µM (inactive) | 17.2 | 17.3 µM (inactive) | 16.4 µM (inactive) | 12.8 µM (inactive) | 15.6 µM (inactive) |  | 3.7 µM (inactive) | > 10 µM (inactive) | 31.7 µM (inactive) | 14.2 µM (inactive) | > 10 µM (inactive) | 3.58 µM (inactive) | 17.9 µM (inactive) | 17.3 µM (inactive) | 16.3 µM (inactive) | 17 µM (inactive) | 3.44 µM (inactive) | 15.8 µM (inactive)
